Laboratory results published in US12421211B2, “Heterocyclic compounds” (Hoffmann-La Roche Inc., priority 2021, dated 2025).
Structures can show the parent of a compound that is named as a salt.

Legend:
[1] = test system: Acinetobacter baumannii ATCC17961; assay: Antimicrobial susceptibility testing: 90% growth inhibitory concentration (IC90) determination; format: cell-based; conditions: Acinetobacter baumannii, ATCC17961, 16 h, 90% growth inhibitory concentration, Acinetobacter baumannii ATCC17961, Iso-Sensitest broth, OD 600 nm over 16 h; read-out: ATCC 17961 IC90
In short: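 A. baumannii ATCC17961 at ~5×10^5 CFU/ml in Iso-Sensitest broth exposed to 10-point twofold dilutions (e.g. 50–0.097 μM final), 35±2° C. OD600 read every 20 minutes over 16h; IC50 and IC90 derived from inhibition during logarithmic growth.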

[2] = test system: Acinetobacter baumannii ATCC17978; assay: Minimal Inhibitory Concentration (MIC) assay; format: cell-based; conditions: Acinetobacter baumannii ATCC17978, CAMHB medium, 20 hours at 35±2° C., visual reading; read-out: MIC AB. ATCC17978
Experimental: Minimal Inhibitory Concentration Protocol (MIC) Assay:
Table 2 provides the in vitro potency of the compounds of present invention obtained against the strain Acinetobacter baumannii ATCC17978, which was assessed by an MIC (Minimal Inhibitory Concentration) assay as follows.
Test compounds were prepared from 10 mM DMSO stock solutions. The top dose was diluted from 10 mM to 2.5 mM by DMSO, followed by serial 2-fold 11 points dilutions in DMSO in a master plate (Greiner, Cat No: 651201). 2 μL compounds were transferred from the master plate into a new 96-well assay plate (Costar, 3599).
The growth medium […] Mueller Hinton Broth (CAMHIB) was prepared by adding 22 g powder (BD, 212322) in 1 L purified water, autoclaved, and supplemented with sterilized CaCl2 (20 mg per liter) and MgCl2 (10 mg per liter).
Vials of each of the test microorganisms were maintained frozen in the vapor phase of a liquid nitrogen freezer. Took out the bacterial strain ATCC 17978 from liquid nitrogen freezer, thawed it at room temperature, and diluted the bacterial in the CAMHB medium to achieve a final inoculum of 2×10^5 CFU/mL. 98 μL of the adjusted bacteria suspension was dispensed to the assay plate and pipetted 5 times.
Then the assay plates were incubated for 20 hours at 35±2° C. in ambient air with humidity. Following incubation, MIC […] value, the lowest concentration of drug that inhibits visible growth of the microorganism, was recorded by visual judgment of bacterial growth through magnification mirror of MIC reader, and the assay plates were photographed with Qcount system as image raw data. Meanwhile, the D600 of assay plates was recorded with SpectraMax Plus384 as GD raw data.

Row | IC90 [1] [nM] | MIC [2] [µM] | Structure (SMILES)
1 | 608 | 2.41 | COc1ccc(-c2[nH]ncc2-c2ccc(-c3cnc(C(=O)Nc4ccc(C(=O)N5CCN(C(=O)C6CC[N+](C)(C)CC6)CC5)c(Cl)c4)n3C)c(F)c2F)cc1 [Example I2, N-[3-chloro-4-[4-(1,1-dimethylpiperidin-1-ium-4-carbonyl)piperazine-1-carbonyl]phenyl]-5-[2,3-difluoro-4-[5-(4-methoxyphenyl)-1H-pyrazol-4-yl]phenyl]-1-methyl-imidazole-2-carboxamide; formate]
2 | 398 | 1.81 | COc1cccc(-c2[nH]ncc2-c2ccc(-c3cnc(C(=O)Nc4ccc(C(=O)N5CCN(C(=O)C6CC[N+](C)(C)CC6)CC5)c(Cl)c4)n3C)c(F)c2F)c1 [Example I3, N-[3-chloro-4-[4-(1,1-dimethylpiperidin-1-ium-4-carbonyl)piperazine-1-carbonyl]phenyl]-5-[2,3-difluoro-4-[5-(3-methoxyphenyl)-1H-pyrazol-4-yl]phenyl]-1-methyl-imidazole-2-carboxamide; formate]
